This passage reports IC50 and EC50 results from ChEMBL document CHEMBL1201862, “PubChem BioAssay data set” (2004).

Each structure is given as a SMILES string. Calls of active or inactive are those of the source. Where only a bound is given, the exact number is not on record here.

Test [1] addresses T1, Neuropeptide Y receptor type 1 (Homo sapiens, UniProt P25929).
T1 sequence (P25929 whole entry): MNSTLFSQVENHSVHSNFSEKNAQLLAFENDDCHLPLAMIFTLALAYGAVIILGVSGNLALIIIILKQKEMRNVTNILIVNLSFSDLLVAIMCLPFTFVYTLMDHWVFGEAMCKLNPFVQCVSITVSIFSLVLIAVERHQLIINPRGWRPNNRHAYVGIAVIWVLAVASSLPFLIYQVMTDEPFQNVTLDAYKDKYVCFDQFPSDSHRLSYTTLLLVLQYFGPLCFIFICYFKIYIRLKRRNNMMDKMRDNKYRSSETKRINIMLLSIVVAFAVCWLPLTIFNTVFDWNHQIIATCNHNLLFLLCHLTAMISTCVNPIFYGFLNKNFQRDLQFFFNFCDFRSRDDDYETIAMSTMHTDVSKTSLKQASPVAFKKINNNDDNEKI
In kind it is functional.

For test [2], the target named is T2, Neuropeptide Y receptor type 2 (Homo sapiens, UniProt P49146).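 Further: HEK293 cells expressing the receptor and a CNG channel; stimulus was NPY near EC95 followed by isoproterenol to raise cAMP; antagonist potency measured as restoring cAMP signal that NPY suppresses.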
T2 sequence (P49146 whole entry): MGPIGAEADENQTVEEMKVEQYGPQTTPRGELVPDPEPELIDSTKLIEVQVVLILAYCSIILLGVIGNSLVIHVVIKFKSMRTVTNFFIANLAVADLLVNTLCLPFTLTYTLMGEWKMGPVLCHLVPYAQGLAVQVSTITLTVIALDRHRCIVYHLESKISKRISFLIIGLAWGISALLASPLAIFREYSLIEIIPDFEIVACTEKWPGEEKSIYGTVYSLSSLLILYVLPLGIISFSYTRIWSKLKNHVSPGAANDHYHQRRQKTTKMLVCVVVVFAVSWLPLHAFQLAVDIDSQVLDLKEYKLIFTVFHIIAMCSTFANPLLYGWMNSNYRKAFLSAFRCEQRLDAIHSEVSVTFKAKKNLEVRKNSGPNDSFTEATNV
In kind it is functional, cell-based.

The test system of the next test is Streptococcus. Put plainly: Group A Streptococcus viability loss, dose response, counter-screen for streptokinase expression inhibitor project, luminescence, BacTiterGlo (AID 1915).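 Further: potency for reduction of bacterial viability or growth.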 In kind it is functional, organism-based. On the technique in general: The purpose of a counterscreen is to sort out artefacts and off-target activity.
For a further test, the target named is Vasopressin V1a receptor (Homo sapiens, UniProt P37288). Put plainly: Fluorescence-based cell-based high throughput dose response screening assay for agonists of the vasopressin 1 receptor (V1R). In kind it is functional.
Test [3] relates to Streptococcus sp. 'group A'. Put plainly: growth inhibition of control SK(-) GAS strain, dose response, counter-screen for streptokinase expression inhibitor project, luminescence, kanamycin, BacTiterGlo, confirmation (AID 1900). In kind it is functional, organism-based.
The target of the next test is Oxytocin receptor (Homo sapiens, UniProt P30559). Nature of the test: Counterscreen for vasopressin 1 receptor (V1R) agonists: Fluorescence-based cell-based high throughput dose response assay for agonists of the Oxytocin Receptor (OXTR). [Related pubchem assays: 2435 (Primary screen (OXTR agonists in singlicate)), 434964 (Confirmation screen (V1R agonists in triplicate)), 434969 (Counterscreen (OXTR agonists in …. In kind it is functional.
Oxytocin receptor, sequence (P30559 whole entry): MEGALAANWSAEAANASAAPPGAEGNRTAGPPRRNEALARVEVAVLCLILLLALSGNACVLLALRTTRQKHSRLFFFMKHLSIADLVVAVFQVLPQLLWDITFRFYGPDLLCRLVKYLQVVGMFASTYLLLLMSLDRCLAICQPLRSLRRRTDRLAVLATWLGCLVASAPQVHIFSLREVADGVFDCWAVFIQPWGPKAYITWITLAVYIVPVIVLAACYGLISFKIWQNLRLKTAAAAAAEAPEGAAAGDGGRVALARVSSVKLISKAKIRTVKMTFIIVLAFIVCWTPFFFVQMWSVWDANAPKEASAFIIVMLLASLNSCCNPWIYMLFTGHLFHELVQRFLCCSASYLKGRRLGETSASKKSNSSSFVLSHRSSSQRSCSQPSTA

Test [4] addresses T3, Short transient receptor potential channel 4 (Mus musculus, UniProt Q9QUQ5).
T3 sequence (Q9QUQ5 whole entry): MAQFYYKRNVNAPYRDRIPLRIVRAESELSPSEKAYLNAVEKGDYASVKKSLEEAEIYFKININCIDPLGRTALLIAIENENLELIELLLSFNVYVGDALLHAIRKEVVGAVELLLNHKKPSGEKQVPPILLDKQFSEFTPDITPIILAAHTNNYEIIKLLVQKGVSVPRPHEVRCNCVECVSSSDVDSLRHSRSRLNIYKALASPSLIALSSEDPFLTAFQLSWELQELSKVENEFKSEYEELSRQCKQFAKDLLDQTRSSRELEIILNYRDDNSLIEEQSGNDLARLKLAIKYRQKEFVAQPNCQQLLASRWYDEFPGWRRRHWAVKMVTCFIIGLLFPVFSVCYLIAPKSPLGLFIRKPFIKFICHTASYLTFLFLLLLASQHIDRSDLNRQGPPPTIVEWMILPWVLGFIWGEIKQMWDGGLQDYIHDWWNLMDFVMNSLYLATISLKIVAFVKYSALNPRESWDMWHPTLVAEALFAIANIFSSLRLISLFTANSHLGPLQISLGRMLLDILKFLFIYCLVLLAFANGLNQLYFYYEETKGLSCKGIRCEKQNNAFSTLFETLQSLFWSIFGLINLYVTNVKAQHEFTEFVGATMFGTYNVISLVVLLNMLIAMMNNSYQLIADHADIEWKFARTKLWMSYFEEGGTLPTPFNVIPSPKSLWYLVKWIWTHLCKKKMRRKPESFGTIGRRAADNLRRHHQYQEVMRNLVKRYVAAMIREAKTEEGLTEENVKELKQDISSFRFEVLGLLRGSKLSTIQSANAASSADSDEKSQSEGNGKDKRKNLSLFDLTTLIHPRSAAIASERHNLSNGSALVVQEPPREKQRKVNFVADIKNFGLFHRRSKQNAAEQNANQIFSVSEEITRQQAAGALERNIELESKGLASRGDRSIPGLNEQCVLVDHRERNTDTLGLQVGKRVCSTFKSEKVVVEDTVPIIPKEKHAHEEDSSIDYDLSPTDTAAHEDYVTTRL
Nature of the test: mouse TRPC4 channel activators, dose response, cell-based, HEK293 TRPC4/mu-opioid, Fluo-4 calcium (AID 434937). It counts as functional.

In test [5] the target is Peroxisome proliferator-activated receptor gamma/Nuclear receptor coactivator 3 (Homo sapiens, UniProt P37231). In kind it is functional.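 Further: agonist potency for raising coactivator recruitment to the receptor.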
Test [6] concerns the target Peroxisome proliferator-activated receptor gamma/Nuclear receptor coactivator 1 (Homo sapiens, UniProt P37231). In kind it is functional.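 Further: agonist potency as compounds enhance coactivator SRC-1 recruitment to PPARgamma.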
Test [7] deals with Peroxisome proliferator-activated receptor gamma/Nuclear receptor coactivator 2 (Homo sapiens, UniProt P37231). It counts as functional.
Peroxisome proliferator-activated receptor gamma/Nuclear receptor coactivator 2, sequence (P37231 whole entry): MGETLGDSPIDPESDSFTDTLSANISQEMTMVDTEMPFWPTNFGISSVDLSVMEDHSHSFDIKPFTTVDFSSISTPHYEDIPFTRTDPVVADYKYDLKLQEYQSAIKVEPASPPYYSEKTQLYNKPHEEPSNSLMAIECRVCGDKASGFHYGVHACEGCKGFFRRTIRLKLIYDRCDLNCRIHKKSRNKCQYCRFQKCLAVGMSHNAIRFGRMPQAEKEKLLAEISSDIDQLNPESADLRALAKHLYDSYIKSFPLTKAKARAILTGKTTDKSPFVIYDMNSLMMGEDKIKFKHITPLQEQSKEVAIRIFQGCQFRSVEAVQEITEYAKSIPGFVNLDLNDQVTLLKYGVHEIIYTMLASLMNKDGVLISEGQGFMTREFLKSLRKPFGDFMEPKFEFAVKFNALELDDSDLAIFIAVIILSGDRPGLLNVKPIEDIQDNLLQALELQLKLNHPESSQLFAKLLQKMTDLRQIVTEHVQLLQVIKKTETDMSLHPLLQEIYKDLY
Peroxisome proliferator-activated receptor gamma/Nuclear receptor coactivator 2, sequence (Q15596 whole entry, further chain): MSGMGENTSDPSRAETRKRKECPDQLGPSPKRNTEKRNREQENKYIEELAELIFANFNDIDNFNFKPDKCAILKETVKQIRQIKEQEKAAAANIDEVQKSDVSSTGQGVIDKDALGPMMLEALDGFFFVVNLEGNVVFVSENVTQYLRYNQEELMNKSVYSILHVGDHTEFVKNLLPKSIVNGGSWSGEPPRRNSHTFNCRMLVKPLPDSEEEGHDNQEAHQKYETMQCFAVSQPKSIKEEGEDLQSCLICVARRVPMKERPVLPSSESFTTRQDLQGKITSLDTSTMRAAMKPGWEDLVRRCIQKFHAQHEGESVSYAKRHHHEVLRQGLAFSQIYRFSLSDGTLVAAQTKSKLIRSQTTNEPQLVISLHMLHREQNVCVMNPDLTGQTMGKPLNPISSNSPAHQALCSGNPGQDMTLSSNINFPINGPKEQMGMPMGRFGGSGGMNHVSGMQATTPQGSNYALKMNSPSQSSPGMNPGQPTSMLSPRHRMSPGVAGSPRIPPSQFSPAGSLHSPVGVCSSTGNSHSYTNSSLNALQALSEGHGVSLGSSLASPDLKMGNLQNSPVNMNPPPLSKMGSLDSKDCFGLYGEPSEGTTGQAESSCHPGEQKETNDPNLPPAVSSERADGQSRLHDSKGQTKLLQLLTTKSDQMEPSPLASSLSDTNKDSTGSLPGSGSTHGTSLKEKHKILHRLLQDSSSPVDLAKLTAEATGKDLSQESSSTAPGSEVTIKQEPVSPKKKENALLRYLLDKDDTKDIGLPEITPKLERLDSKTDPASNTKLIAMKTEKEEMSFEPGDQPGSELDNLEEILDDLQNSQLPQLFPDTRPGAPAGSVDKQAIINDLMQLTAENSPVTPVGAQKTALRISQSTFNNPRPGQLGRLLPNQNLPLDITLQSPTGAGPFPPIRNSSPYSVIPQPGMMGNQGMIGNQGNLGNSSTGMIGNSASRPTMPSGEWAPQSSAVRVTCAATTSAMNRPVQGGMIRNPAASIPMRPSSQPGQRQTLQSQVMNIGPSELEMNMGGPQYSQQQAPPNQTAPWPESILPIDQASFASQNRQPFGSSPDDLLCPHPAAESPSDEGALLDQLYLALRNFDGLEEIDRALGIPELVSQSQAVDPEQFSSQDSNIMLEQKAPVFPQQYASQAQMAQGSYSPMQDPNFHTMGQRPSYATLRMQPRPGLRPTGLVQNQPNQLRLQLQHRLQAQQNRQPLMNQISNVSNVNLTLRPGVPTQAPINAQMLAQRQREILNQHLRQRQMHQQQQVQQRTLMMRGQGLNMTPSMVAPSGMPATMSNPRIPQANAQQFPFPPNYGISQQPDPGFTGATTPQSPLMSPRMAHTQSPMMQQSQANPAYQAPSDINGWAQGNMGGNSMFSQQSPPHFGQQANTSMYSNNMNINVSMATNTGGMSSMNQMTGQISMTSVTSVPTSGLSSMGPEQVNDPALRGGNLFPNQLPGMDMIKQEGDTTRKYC
The target of the next test is Estrogen receptor (Homo sapiens, UniProt P03372).
For another test, the target named is Estrogen receptor beta (Homo sapiens, UniProt Q92731).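 Further: recombinant ER-beta bound to coactivator SRC1 peptide in presence of estradiol agonist; inhibitors block coactivator peptide binding and lower the FRET signal.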
Estrogen receptor beta, sequence (Q92731 whole entry): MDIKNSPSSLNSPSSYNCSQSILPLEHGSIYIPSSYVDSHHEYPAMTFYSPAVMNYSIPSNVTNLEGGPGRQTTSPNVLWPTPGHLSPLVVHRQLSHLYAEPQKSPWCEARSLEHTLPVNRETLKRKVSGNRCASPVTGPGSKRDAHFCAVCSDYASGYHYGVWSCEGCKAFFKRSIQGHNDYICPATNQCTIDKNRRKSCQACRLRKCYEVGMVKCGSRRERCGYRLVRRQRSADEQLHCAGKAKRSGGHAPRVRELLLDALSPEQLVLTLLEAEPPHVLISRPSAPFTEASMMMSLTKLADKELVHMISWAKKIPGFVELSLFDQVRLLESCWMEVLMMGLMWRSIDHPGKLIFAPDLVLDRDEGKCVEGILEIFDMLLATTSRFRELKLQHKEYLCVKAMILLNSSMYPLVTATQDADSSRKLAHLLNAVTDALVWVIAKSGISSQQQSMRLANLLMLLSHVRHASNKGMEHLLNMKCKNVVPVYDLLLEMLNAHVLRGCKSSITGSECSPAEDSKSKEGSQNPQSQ

Peroxisome proliferator-activated receptor gamma/Nuclear receptor coactivator 1, sequence (P37231 whole entry): as the sequence (P37231 whole entry) above
Peroxisome proliferator-activated receptor gamma/Nuclear receptor coactivator 1, sequence (Q15788 whole entry, further chain): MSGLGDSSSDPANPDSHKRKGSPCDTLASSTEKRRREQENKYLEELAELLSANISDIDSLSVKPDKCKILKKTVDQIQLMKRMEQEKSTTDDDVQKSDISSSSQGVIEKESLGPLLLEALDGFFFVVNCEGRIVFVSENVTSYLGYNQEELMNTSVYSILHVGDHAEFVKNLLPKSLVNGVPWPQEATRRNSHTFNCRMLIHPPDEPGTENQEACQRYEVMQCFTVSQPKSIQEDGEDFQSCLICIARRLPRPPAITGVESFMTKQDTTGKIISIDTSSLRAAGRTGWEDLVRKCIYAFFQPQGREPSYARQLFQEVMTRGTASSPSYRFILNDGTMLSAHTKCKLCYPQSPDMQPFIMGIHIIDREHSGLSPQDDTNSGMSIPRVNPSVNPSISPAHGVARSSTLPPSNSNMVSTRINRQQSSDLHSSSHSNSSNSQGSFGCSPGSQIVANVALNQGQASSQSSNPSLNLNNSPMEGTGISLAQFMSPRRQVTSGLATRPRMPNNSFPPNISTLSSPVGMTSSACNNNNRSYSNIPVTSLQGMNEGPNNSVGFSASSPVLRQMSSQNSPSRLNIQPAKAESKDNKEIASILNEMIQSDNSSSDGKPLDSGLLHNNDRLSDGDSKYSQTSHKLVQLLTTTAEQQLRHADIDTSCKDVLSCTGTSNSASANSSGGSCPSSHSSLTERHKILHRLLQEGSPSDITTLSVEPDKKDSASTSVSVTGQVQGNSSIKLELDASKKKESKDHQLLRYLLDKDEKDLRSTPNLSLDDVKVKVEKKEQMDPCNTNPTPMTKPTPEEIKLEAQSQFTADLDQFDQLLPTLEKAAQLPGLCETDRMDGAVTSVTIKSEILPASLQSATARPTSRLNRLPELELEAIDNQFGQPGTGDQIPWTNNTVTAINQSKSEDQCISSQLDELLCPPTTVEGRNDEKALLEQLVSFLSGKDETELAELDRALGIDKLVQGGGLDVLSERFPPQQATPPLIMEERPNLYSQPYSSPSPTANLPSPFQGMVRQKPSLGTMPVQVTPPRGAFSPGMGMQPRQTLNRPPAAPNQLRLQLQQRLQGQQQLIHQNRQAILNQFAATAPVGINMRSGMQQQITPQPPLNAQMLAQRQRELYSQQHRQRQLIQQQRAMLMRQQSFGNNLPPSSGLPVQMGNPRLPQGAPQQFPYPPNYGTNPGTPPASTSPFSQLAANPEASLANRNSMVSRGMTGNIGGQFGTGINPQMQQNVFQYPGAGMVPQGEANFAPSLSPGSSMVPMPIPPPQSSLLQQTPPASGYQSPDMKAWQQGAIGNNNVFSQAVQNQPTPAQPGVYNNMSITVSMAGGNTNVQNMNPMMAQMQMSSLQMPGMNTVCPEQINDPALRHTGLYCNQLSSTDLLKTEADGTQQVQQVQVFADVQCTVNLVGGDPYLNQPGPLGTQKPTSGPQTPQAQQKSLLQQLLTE

As usually defined, the IC50 is the point on the concentration scale where inhibition reaches its midpoint. On to `CCN(CC)CC(O)COc1ccc2c(c1)c(C(C)=O)c(C)n2-c1ccccc1` (centres undefined), for which the 50% inhibitory concentration (IC50) in [1] is 4.37 µM (active); in test [2], 6.95 µM (active).
Broadly, the EC50 is the concentration giving half of the maximal effect. On to `O=c1c2cc(Br)ccc2nc(-c2cccc(Cl)c2)n1O`, for which the EC50 in the test on Streptococcus was 2.86 µM (active); at Vasopressin V1a receptor, 6.68 µM (active); in test [3], 1.13 µM (active); on Oxytocin receptor, > 9.97 µM (active); in test [4], 9.44 µM (active).
In the case of `COc1ccc(CCN(Cc2nc(O)c3ccccc3n2)C(=O)c2ccco2)cc1OC`, the EC50 in test [5], in test [6] and in test [7] was > 79.4 µM (not active) each time.
As to `O=C(c1cc(-c2ccco2)on1)N1CCc2ccccc2C1`, the IC50 is on record as 32.5 µM (not active) against Estrogen receptor and > 50 µM (not active) on Estrogen receptor beta.
Consider `CC(C)c1ccc(-c2nnn(Cc3nc4ccccc4s3)n2)cc1`, for which the IC50 in [1] is 5.68 µM (active); in [2], 4.61 µM (active).
